Here are results for four compounds from US11286273B2, “Rhamnolipid compounds and use thereof” (KOREA INSTITUTE OF OCEAN SCIENCE & TECHNOLOGY, priority 2019, dated 2022).

As a reminder, the GI50 is the concentration at which growth is held to half of that of the control. A low value points to more potent growth inhibition.

What all share (type): cell-based
For one test, the system named is NCI-H23. Description: SRB growth inhibition, NCI-H23 (liver cancer). Conditions: Homo sapiens, NCI-H23, 48 hours. As for the experimental part: (§1) Human cancer cell lines HCT-15 (colon cancer), NUGC-3 (gastric cancer), NCI-H23 (liver cancer), ACHN (kidney cancer), PC-3 (prostate cancer) and MDA-MB-231 (breast cancer) were purchased from American Type Culture Collection (Manassas, Va.).
(§2) Cancer cell lines were cultured in RPMI 1640 supplemented with 10% fetal bovine serum (FBS) in a 5% CO2 humid atmosphere at 37° C. The evaluation of growth inhibitory ability against human cancer cell lines was performed via the Sulforhodamine B (SRB) method. The cells were dispensed into a 96-well plate at a density of 8,000 cells/well, and the next day, cells were treated with compounds 1 to 3 (0.1% DMSO as vehicle control), and treated with a positive control (adriamycin). After incubation for 48 hours, the culture fluid was fixed with 50% trichloroacetic acid ([…]) and stained with 0.4% sulforhodamine B contained in 1% acetic acid. The unbound dye was washed with 1% acetic acid, and the dye bound to the protein was extracted with 10 mM Tris base (pH 10.5) to determine the optical density. The absorbance at 540 nm was determined using a VersaMax microplate reader (Molecular Devices, LLC, Sunnyvale, Calif., USA). The GI50 values were calculated using GraphPad Prism 4.0 software (GraphPad Software, Inc., San Diego, Calif., USA) and shown in Table 3 below.

A further test deals with MDA-MB-231. Put plainly: SRB growth inhibition, MDA-MB-231 (breast cancer). Particulars: Homo sapiens, MDA-MB-231, 48 hours. The method, then:
as §1, §2

The test system of the next test is Human cancer cell lines. Put plainly: SRB growth inhibition, panel of six human cancer cell lines (summary). Conditions: for GI50: Homo sapiens, range over the six cancer cell lines of Table 3. As for the experimental part: as §1, §2
In another test the test system is NUGC-3. Put plainly: SRB growth inhibition, NUGC-3 (gastric cancer). Particulars: Homo sapiens, NUGC-3, 48 hours. As for the experimental part:
as §1, §2

The next test has as its system HCT-15. Description: SRB growth inhibition, HCT-15 (colon cancer). Conditions: Homo sapiens, HCT-15, 48 hours. As for the experimental part:
as §1, §2

The next test concerns ACHN. Description: SRB growth inhibition, ACHN (kidney cancer). Particulars: Homo sapiens, 48 hours. As for the experimental part:
as §1, §2

The next test relates to PC-3. Description: SRB growth inhibition, PC-3 (prostate cancer). Particulars: Homo sapiens, PC-3, 48 hours. As for the experimental part:
as §1, §2

Turning to `CC1OC(O[C@H](CCCCCCCCCCCCC[C@@H](C)O)CC(=O)O)C(O)C(O)C1O` (stereo in doubt) [Compound 1, 17-hydroxy-3-(3,4,5-trihydroxy-6-methyltetrahydro-2H-pyran-2-yloxy)octadecanoic acid], the GI50 in the test on NCI-H23 was 27.5 µM; in the test on MDA-MB-231 it was 30.6 µM; with Human cancer cell lines it was 13.7 to 41.5 µM; in the test with NUGC-3, 30.6 µM; in the test with HCT-15 it was 41.5 µM; in the test with ACHN, 34.2 µM. Also, halving of growth in the test with PC-3 (GI50) required 37.8 µM.
With `CC(=O)CCCCCCCCCCCCC[C@H](CC(=O)O)OC1OC(C)C(O)C(O)C1O` (stereo in doubt) [Compound 2, 17-oxo-3-(3,4,5-trihydroxy-6-methyltetrahydro-2H-pyran-2-yloxy)octadecanoic acid], the GI50 in the test with NCI-H23 is 13.7 µM; with MDA-MB-231 it was 40.4 µM; in the test on Human cancer cell lines it was 13.7 to 41.5 µM; in the test on NUGC-3, 19.3 µM; with HCT-15, 16.7 µM; in the test with ACHN it was 14.1 µM. In the test on PC-3, this compound had a 50% growth inhibitory concentration (GI50) of 18.2 µM. Besides, the “activity against cancer cell lines” value in the test on Human cancer cell lines (summary in words of Table 3) is given as “particularly excellent activity”.
In the case of `COc1cccc2c1C(=O)c1c(O)c3c(c(O)c1C2=O)C[C@@](O)(C(=O)CO)C[C@@H]3O[C@H]1C[C@H](N)[C@H](O)[C@H](C)O1` [ADR, adriamycin, reference compound], the GI50 with NCI-H23 was found to be 1.4 µM; in the test with MDA-MB-231, 1.5 µM; with NUGC-3, 1.5 µM; in the test on HCT-15 it was 1.4 µM; in the test with ACHN, 1.3 µM; with PC-3 it was 1.4 µM.
As to `CC1OC(OC2C(O[C@H](CCCCCCCCCCCCC[C@@H](C)O)CC(=O)O)OC(C)C(O)C2O)C(O)C(O)C1O` (stereo partly shown) [Compound 3, 3-(4,5-dihydroxy-6-methyl-3-(3,4,5-trihydroxy-6-methyltetrahydro-2H-pyran-)2-yloxy)tetrahydro-(2H-pyran-2-yloxy)-17-hydroxyoctadecanoic acid], the GI50 with NCI-H23 was 36.9 µM; in the test on MDA-MB-231, 25.5 µM; in the test with Human cancer cell lines, 13.7 to 41.5 µM; with NUGC-3 it was 32 µM; in the test with HCT-15, 26.9 µM; with ACHN it was 29.1 µM. Further, in the test with PC-3, the GI50 came out at 33.3 µM.
